The values below come from ChEMBL document CHEMBL5614396, “Structure-Activity Relationship Studies in Benzothiadiazoles as Novel Vaccine Adjuvants” (J Med Chem, 2024).

Series [1] can be described thus: Cytotoxicity against Balb/c mouse BMDC assessed as cell viability at 10 uM incubated for 20 hrs by MTT assay (reference value: 100 +/-0.6%). The series is classed as toxicity, cell-based. Conditions: BMDC (bone marrow-derived dendritic cells), read-out: Activity. For orientation: Formazan colour is commonly taken as a measure of viable cells.
In series [2] the test system is BMDC. Briefly: Vaccine adjuvant activity in Balb/c mouse BMDC assessed as increase in IL-12 production at 10 uM incubated for 20 hrs by ELISA (reference value: 1.35 +/-0.1 ng/ml). The series is classed as functional. For orientation: ELISA stands for enzyme-linked immunosorbent assay.
In a further series the test system is THP-1. The experiment in a line: Vaccine adjuvant activity in human THP-1 cells expressing CD63-Turbo-luciferase and CD9-Emerald green fluorescent protein reporter assessed as extracellular vesicle release by measuring reporter activation at 10 uM incubated for 48 hrs by TurboLuc luciferase based chemiluminescence assay (reference value: 0%). Type of series: functional.

The subject of series [3] is BMDC. The experiment in a line: Vaccine adjuvant activity in Balb/c mouse BMDC assessed as induction of Ca2+ influx at 10 uM by Fura-2/8-AM dye based fluorescence analysis (reference value: 0%). Type of series: functional.

For the molecule `CCOC(=O)c1c(NS(=O)(=O)c2ccc3nsnc3c2)sc(C)c1C`, in series [1], the viability at 20 h, 10 µM amounted to 93.1%. For the same molecule, the Activity is 0.63 ng/mL in the series with BMDC [2], 0.2% in the series on THP-1 and -12.7% with BMDC [3].
As for `CCOC(=O)c1c(NS(=O)(=O)c2cccc3nonc23)sc(C)c1C`, the viability at 20 h, 10 µM in series [1] stood at 105%. The Activity in the series with BMDC [2] was 1.47 ng/mL; in the series with THP-1, 4.7%; in the series on BMDC [3], -12.5%.
The like results for `CCOC(=O)c1c(NS(=O)(=O)c2cccc3nsnc23)sc(-c2cccnc2)c1C` were, in that order, 85.5%, 1.05 ng/mL, 75.3% and 11.8%.
Take `CCOC(=O)c1cc(C)sc1NS(=O)(=O)c1cccc2nsnc12`: the viability at 20 h, 10 µM in series [1] is 93%. In addition, the Activity in the series with BMDC [2] stood at 0.81 ng/mL; in the series on THP-1 it was 106.9%; in the series on BMDC [3], 78.5%.
`CCOC(=O)c1ncsc1NS(=O)(=O)c1cccc2nsnc12`: the viability at 20 h, 10 µM in series [1] turned out to be 91.3%. Also, the Activity in the series on BMDC [2] was 1.04 ng/mL; with THP-1 it was 1.3%; with BMDC [3], -6.4%.
For the molecule `Cc1sc(NS(=O)(=O)c2cccc3nsnc23)c(C(=O)O)c1C`, the viability at 20 h, 10 µM in series [1] was 105%. Also, the Activity in the series on BMDC [2] was 1.43 ng/mL; in the series with THP-1, -1.3%; in the series on BMDC [3], -31.3%.
On to `CCOC(=O)c1c(NS(=O)(=O)c2cccc3c2NCCN3)sc(C)c1C`, for which, in series [1], the viability at 20 h, 10 µM came out at 89.3%. Also, the Activity worked out at 1.06 ng/mL in the series with BMDC [2], 2.7% with THP-1 and 2% in the series with BMDC [3].
Consider `COC(=O)c1c(NS(=O)(=O)c2cccc3nsnc23)sc(C)c1C`, for which the viability at 20 h, 10 µM in series [1] came to 114%. Further, the Activity in the series with BMDC [2] was 1.75 ng/mL; with THP-1 it was 30.1%; in the series on BMDC [3], 83.6%.
Take `CCOC(=O)c1c(NS(=O)(=O)c2cccc3nsnc23)sc2c1CCNC2`: in series [1], the viability at 20 h, 10 µM stood at 94.8%. The Activity was 0.72 ng/mL with BMDC [2], 0.1% in the series on THP-1 and -35.3% in the series on BMDC [3].
The like results for `CCOC(=O)c1c(NS(=O)(=O)c2cccc3nsnc23)sc(C)c1CC` were, in that order, 100%, 2.27 ng/mL, 112% and 117.6%.
Take `CCOC(=O)c1c(NS(=O)(=O)c2ccc(Br)c3ccncc23)sc(C)c1C`: the viability at 20 h, 10 µM in series [1] stood at 82.7%. The Activity in the series with BMDC [2] is 1.12 ng/mL; in the series with THP-1 it was 16.1%; in the series on BMDC [3], -9.4%.
The like results for `Cc1cc(NS(=O)(=O)c2cccc3nsnc23)sc1C` were, in that order, 113%, 1.4 ng/mL, -0.9% and -11.4%.
Taken in the same sequence, the figures for `CCOC(=O)c1c(NS(=O)(=O)c2cccc3nc(O)[nH]c23)sc(C)c1C` were 88.1%, 0.59 ng/mL, 0.4% and -14.3%.
On to `CCOC(=O)c1sc(C)c(C)c1NS(=O)(=O)c1cccc2nsnc12`, for which the viability at 20 h, 10 µM in series [1] was found to be 130%. For the same molecule, the results for the Activity with BMDC [2], in the series on THP-1 and in the series on BMDC [3] were 1.67 ng/mL, 154.1% and 74.2%, respectively.
As for `CCCOC(=O)c1c(NS(=O)(=O)c2cccc3nsnc23)sc(C)c1C`, the viability at 20 h, 10 µM in series [1] is 140%. Also, the Activity was 3.5 ng/mL with BMDC [2], 156.3% in the series with THP-1 and 147.4% in the series on BMDC [3].
As for `Cc1sc(NS(=O)(=O)c2cccc3nsnc23)c(C(=O)OCCCCCN)c1C`, in series [1], the viability at 20 h, 10 µM was determined as 103%. The Activity in the series on BMDC [2] is 1.43 ng/mL; in the series on THP-1 it was 0.7%; in the series on BMDC [3] it was -2.6%.
Consider `CCOC(=O)c1c(NS(=O)(=O)c2cccc3nc(C)[nH]c23)sc(C)c1C`, for which, in series [1], the viability at 20 h, 10 µM was 108%. Besides, the Activity is 1.42 ng/mL in the series on BMDC [2], 3.4% in the series on THP-1 and -13.1% in the series with BMDC [3].
As for `CCOC(=O)c1c(NS(=O)(=O)c2cccc3ncccc23)sc(C)c1C`, in series [1], the viability at 20 h, 10 µM was 117%. Further, the Activity was 1.1 ng/mL in the series with BMDC [2], 0% with THP-1 and -13.3% with BMDC [3].
On to `CCOC(=O)c1c(NS(=O)(=O)c2cccc3nsnc23)sc2c1CCN(CC)C2`, for which the viability at 20 h, 10 µM in series [1] was found to be 108%. Also, the Activity is 1.84 ng/mL in the series on BMDC [2], 1.3% with THP-1 and -10.8% in the series on BMDC [3].
`CCOC(=O)c1c(NS(=O)(=O)c2cccc3nsnc23)sc2c1CCCC2`: the viability at 20 h, 10 µM in series [1] is 114%. Further, the figures for the Activity in the series on BMDC [2], with THP-1 and in the series on BMDC [3] were 1.83 ng/mL, 156.9% and 102.1%, respectively.
Taken in the same sequence, the figures for `CCOC(=O)c1c(NS(=O)(=O)c2cccc3nsnc23)sc(Br)c1C` were 104%, 1.03 ng/mL, 81.1% and 102.9%.
For `Cc1sc(NS(=O)(=O)c2cccc3nsnc23)c(C(=O)Oc2ccccc2)c1C`, in series [1], the viability at 20 h, 10 µM is 107%. The Activity in the series with BMDC [2] stood at 1.58 ng/mL; in the series on THP-1, 39.8%; in the series with BMDC [3], 85.3%.
Taken in the same sequence, the figures for `CCOC(=O)c1c(NS(=O)(=O)c2cccc(N)c2N)sc(C)c1C` were 107%, 1.39 ng/mL, 2.4% and -6.8%.
Regarding `CCOC(=O)c1nc(C)sc1NS(=O)(=O)c1cccc2nsnc12`, in series [1], the viability at 20 h, 10 µM came out at 93.3%. For the same molecule, the results for the Activity in the series with BMDC [2], in the series on THP-1 and in the series with BMDC [3] were 0.92 ng/mL, 1.7% and -7.9%, respectively.
Consider `CCOC(=O)c1c(NS(=O)(=O)c2cccc3ccncc23)sc(C)c1C`, for which, in series [1], the viability at 20 h, 10 µM is 87.5%. For the same molecule, the Activity in the series on BMDC [2] turned out to be 1.12 ng/mL; in the series with THP-1 it was 3.6%; with BMDC [3] it was 4.1%.
On to `Cc1sc(NS(=O)(=O)c2cccc3nsnc23)c(C(=O)OC(C)C)c1C`, for which the viability at 20 h, 10 µM in series [1] was determined as 132%. The Activity with BMDC [2] was found to be 3 ng/mL; in the series with THP-1 it was 149.2%; in the series with BMDC [3], 178.4%.
In the case of `CCOC(=O)c1ccsc1NS(=O)(=O)c1cccc2nsnc12`, in series [1], the viability at 20 h, 10 µM came to 72.5%. The Activity in the series on BMDC [2] came out at 0.48 ng/mL; with THP-1, 60.9%; with BMDC [3] it was 58.3%.
Taken in the same sequence, the figures for `Cc1sc(NS(=O)(=O)c2cccc3nsnc23)c(C(=O)OCCC(C)C)c1C` were 81.2%, 2.87 ng/mL, 141.6% and 262.4%.
For the molecule `Cc1sc(NS(=O)(=O)c2cccc3nsnc23)c(C(=O)OCc2ccccc2)c1C`, the viability at 20 h, 10 µM in series [1] came to 128%. The Activity in the series on BMDC [2] is 2.74 ng/mL; in the series with THP-1, 169.9%; with BMDC [3] it was 175.5%.
